Measured values published in ChEMBL document CHEMBL6121005 (Eur J Med Chem, 2025).
Activity calls are given as the source filed them. The rule behind the calls is not given here.

Key:
Mus musculus [1] = experiment: Antialzheimer activity against scopolamine-induced ICR mouse cognitive deficit model assessed as latency time at 2.5 to 10 mg/kg, po administrated daily and measured on initial day of training by Morris water maze test; assay type: functional; details: dose 2.5-10 mg/kg
Mus musculus [2] = experiment: Antialzheimer activity in amyloid beta (1 to 42 residues) induced ICR mouse assessed as increase in distance travelled within target quadrant at 5 mg/kg, po administered daily and measured after 15 to 19 days by Morris water maze test; assay type: functional, organism-based; details: time 15-19 day
Mus musculus [3] = experiment: Antialzheimer activity in amyloid beta (1 to 42 residues) induced ICR mouse assessed as increase in time spent within target quadrant at 5 mg/kg, po administered daily and measured after 15 to 19 days by Morris water maze test; assay type: functional, organism-based; details: time 15-19 day
PC-12 [4] = experiment: Cytoprotective against rat PC12 cells assessed as cell viability at 50 uM preincubated for 24 hrs and measured after 4 hrs by CCK-8 assay; assay type: functional, cell-based
PC-12 [5] = experiment: (§1) Neuroprotective activity against H2O2-induced rat PC12 cells assessed as protection against H2O2-induced apoptosis by measuring viable cells at 50 uM pretreated for 2 hrs followed by H2O2 addition and measured after 24 hrs by Annexin V-FITC/PI staining based flow cytometry analysis (reference value: 90.8 %); assay type: functional; details: time 26 hrs
[6] = Inhibition of H2O2-induced ROS release in rat PC12 cells assessed as mean fluorescence intensity at 50 uM preincubated for 2 hrs followed by H2O2 addition and measured after 24 hrs by DCFH-DA based flow cytometry analysis (reference value: 23904); assay type: functional, PC-12; details: time 26 hrs
Mus musculus [7] = experiment: Antialzheimer activity against amyloid beta (1 to 42)-induced ICR mouse memory impairment model assessed as mean escape latency at 2.5 to 10 mg/kg, po administered daily and measured after 15 to 19 days by Morris water maze test; assay type: functional, organism-based; details: dose 2.5-10 mg/kg, time 15-19 day
Mus musculus [8] = experiment: Antialzheimer activity in scopolamine-induced ICR mouse assessed as increase in trajectory within target quadrant at 2.5 to 10 mg/kg, po administered daily and measured after 16 to 20 days by Morris water maze test; assay type: functional, organism-based; details: dose 2.5-10 mg/kg, time 16-20 day
PC-12 [9] = experiment: as §1, with “early apoptotic” for “viable”, “0.88” for “90.8”; assay type: functional; details: time 26 hrs
Mus musculus [10] = experiment: Antialzheimer activity against amyloid beta (1 to 42)-induced ICR mouse cognitive deficit model assessed as increase in alternation performance at 5 mg/kg, po administered daily and measured on day 12 by Y-maze test relative to control; assay type: functional; details: time 12 day
PC-12 [11] = experiment: as §1, with “necrotic” for “viable”, “0.99” for “90.8”; assay type: functional; details: time 26 hrs
PC-12 [12] = experiment: as §1, with “late apoptotic” for “viable”, “7.26” for “90.8”; assay type: functional; details: time 26 hrs
Mus musculus [13] = experiment: Antialzheimer activity against scopolamine-induced ICR mouse cognitive deficit model assessed as decrease in movement distance at 2.5 to 10 mg/kg, po administrated daily and measured on last day of training by Morris water maze test; assay type: functional, organism-based; details: dose 2.5-10 mg/kg
Mus musculus [14] = experiment: Antialzheimer activity against scopolamine-induced ICR mouse cognitive deficit model assessed as decrease in latency time at 2.5 to 10 mg/kg, po administrated daily and measured on last day of training by Morris water maze test; assay type: functional, organism-based; details: dose 2.5-10 mg/kg
Mus musculus [15] = experiment: Antialzheimer activity against amyloid beta (1 to 42)-induced ICR mouse memory impairment model assessed as decrease in movement distance at 2.5 to 10 mg/kg, po administered daily and measured after 15 to 19 days by Morris water maze test; assay type: functional, organism-based; details: dose 2.5-10 mg/kg, time 15-19 day
Mus musculus [16] = experiment: Antialzheimer activity in amyloid beta (1 to 42 residues) induced ICR mouse memory impairment model assessed as increase in trajectory after platform removal at 2.5 to 10 mg/kg, po administered daily and measured after 15 to 19 days by Morris water maze test; assay type: functional, organism-based; details: dose 2.5-10 mg/kg, time 15-19 day
Mus musculus [17] = experiment: Antialzheimer activity against amyloid beta (1 to 42)-induced ICR mouse cognitive deficit model assessed as increase in alternation performance at 10 mg/kg, po administered daily and measured on day 12 by Y-maze test relative to control; assay type: functional; details: time 12 day
[18] = Acute toxicity in male ICR mouse assessed as microscopic lungs damage at 100 to 1000 mg/kg, po administered for 14 days by hematoxylin and eosin staining based assay; assay type: organism-based; details: in vivo, 336 h, dose 100-1000 mg/kg, time 14 day
Mus musculus [19] = experiment: Antialzheimer activity against amyloid beta (1 to 42)-induced ICR mouse cognitive deficit model assessed as increase in alternation performance at 2.5 mg/kg, po administered daily and measured on day 12 by Y-maze test relative to control; assay type: functional; details: time 12 day
[20] = Cytotoxicity against rat PC12 cells assessed as cell viability at 50 uM preincubated for 24 hrs and measured after 4 hrs by CCK-8 assay; assay type: toxicity, cell-based, PC-12; details: time 28 hrs, read-out: Activity
[21] = Acute toxicity in male ICR mouse assessed as microscopic kidneys damage at 100 to 1000 mg/kg, po administered for 14 days by hematoxylin and eosin staining based assay; assay type: organism-based; details: in vivo, 336 h, dose 100-1000 mg/kg, time 14 day
Mus musculus [22] = experiment: Antialzheimer activity in scopolamine- induced ICR mouse assessed as increase in distance travelled within target quadrant at 2.5 to 10 mg/kg, po administered daily and measured after 16 to 20 days by Morris water maze test; assay type: functional, organism-based; details: dose 2.5-10 mg/kg, time 16-20 day
[23] = Acute toxicity in male ICR mouse assessed as microscopic liver damage at 100 to 1000 mg/kg, po administered for 14 days by hematoxylin and eosin staining based assay; assay type: organism-based; details: in vivo, 336 h, dose 100-1000 mg/kg, time 14 day
[24] = Acute toxicity in male ICR mouse assessed as microscopic heart damage at 100 to 1000 mg/kg, po administered for 14 days by hematoxylin and eosin staining based assay; assay type: organism-based; details: in vivo, 336 h, dose 100-1000 mg/kg, time 14 day
Mus musculus [25] = experiment: Antialzheimer activity in scopolamine-induced temporary memory and cognitive impairment ICR mouse model assessed as increase in step-through latency time at 2.5 to 10 mg/kg, po administered daily and measured on day 13 and 14 by step-through passive avoidance test; assay type: functional, organism-based; details: dose 2.5-10 mg/kg, time 13-14 day
Mus musculus [26] = experiment: Antialzheimer activity in scopolamine- induced ICR mouse assessed as increase in time spent within target quadrant at 2.5 to 10 mg/kg, po administered daily and measured after 16 to 20 days by Morris water maze test; assay type: functional, organism-based; details: dose 2.5-10 mg/kg, time 16-20 day
Mus musculus [27] = experiment: Antialzheimer activity against amyloid beta (1 to 42)-induced ICR mouse cognitive deficit model assessed as increase in step-through latency time at 5 to 10 mg/kg, po administered daily and measured on day 13 and 14 by step-through passive avoidance test; assay type: functional, organism-based; details: dose 5-10 mg/kg, time 13-14 day
Mus musculus [28] = experiment: Antialzheimer activity in scopolamine-induced temporary memory and cognitive impairment ICR mouse model assessed as alternation performance at 2.5 to 5 mg/kg, po administered daily and measured on day 15 by Y-maze test; assay type: functional, organism-based; details: dose 2.5-5 mg/kg, time 15.0 day
Mus musculus [29] = experiment: Antialzheimer activity in amyloid beta (1 to 42 residues) induced ICR mouse assessed as increase in distance travelled within target quadrant at 2.5 to 5 mg/kg, po administered daily and measured after 15 to 19 days by Morris water maze test; assay type: functional, organism-based; details: dose 2.5-5 mg/kg, time 15-19 day
Cholinesterase [30] = biological target: T1, Cholinesterase (Homo sapiens, UniProt P06276); experiment: Inhibition of human serum BuChE using butyrylthiocholine iodide as substrate incubated for 10 mins followed by substrate addition by DTNB reagent based Ellman's method
T1 sequence (P06276 whole entry): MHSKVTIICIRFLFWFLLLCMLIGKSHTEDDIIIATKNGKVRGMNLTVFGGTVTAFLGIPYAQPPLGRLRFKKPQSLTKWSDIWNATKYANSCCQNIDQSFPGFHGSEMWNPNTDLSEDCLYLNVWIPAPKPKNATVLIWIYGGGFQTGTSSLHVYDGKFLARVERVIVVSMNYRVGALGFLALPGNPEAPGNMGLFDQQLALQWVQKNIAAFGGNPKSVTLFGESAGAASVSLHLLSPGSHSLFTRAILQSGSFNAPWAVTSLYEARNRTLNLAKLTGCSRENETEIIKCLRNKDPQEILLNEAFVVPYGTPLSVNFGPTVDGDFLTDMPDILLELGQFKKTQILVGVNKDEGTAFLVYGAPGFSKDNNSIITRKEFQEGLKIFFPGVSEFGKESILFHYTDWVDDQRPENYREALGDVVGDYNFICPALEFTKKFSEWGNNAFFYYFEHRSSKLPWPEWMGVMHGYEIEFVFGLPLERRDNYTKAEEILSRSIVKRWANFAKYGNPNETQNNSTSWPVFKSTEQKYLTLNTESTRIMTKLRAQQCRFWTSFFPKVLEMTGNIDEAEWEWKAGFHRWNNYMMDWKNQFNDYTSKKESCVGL

[31] = Acute toxicity in male ICR mouse assessed as mortality at 100 to 1000 mg/kg, po administered as single dose for 14 days; assay type: organism-based; details: in vivo, 336 h, dose 100-1000 mg/kg, time 14 day
Cholinesterase [32] = biological target: T1, Cholinesterase; experiment: Inhibition of human serum BuChE using butyrylthiocholine iodide as substrate at 10 uM incubated for 10 mins followed by substrate addition by DTNB reagent based Ellman's method relative to control
Mus musculus [33] = experiment: Antialzheimer activity in amyloid beta (1 to 42 residues) induced ICR mouse assessed as increase in time spent within target quadrant at 2.5 to 5 mg/kg, po administered daily and measured after 15 to 19 days by Morris water maze test; assay type: functional, organism-based; details: dose 2.5-5 mg/kg, time 15-19 day
PC-12 [34] = experiment: Antioxidant activity against H2O2-induced toxicity in rat PC12 cells at 12.5 uM preincubated for 2 hrs and measured after 24 hrs by CCK-8 assay; assay type: functional, cell-based; details: time 26.0 hrs
[35] = Acute toxicity in male ICR mouse assessed as effect on body weight at 100 to 1000 mg/kg, po administered for 14 days; assay type: organism-based; details: in vivo, 336 h, dose 100-1000 mg/kg, time 14 day
[36] = Acute toxicity in male ICR mouse assessed as microscopic brain damage at 100 to 1000 mg/kg, po administered for 14 days by hematoxylin and eosin staining based assay; assay type: organism-based; details: in vivo, 336 h, dose 100-1000 mg/kg, time 14 day
Acetylcholinesterase = Acetylcholinesterase (Homo sapiens, UniProt P22303); experiment: Inhibition of human erythrocytes AChE measured after 10 mins by Ellman's method
Sequence of Acetylcholinesterase (P22303 whole entry): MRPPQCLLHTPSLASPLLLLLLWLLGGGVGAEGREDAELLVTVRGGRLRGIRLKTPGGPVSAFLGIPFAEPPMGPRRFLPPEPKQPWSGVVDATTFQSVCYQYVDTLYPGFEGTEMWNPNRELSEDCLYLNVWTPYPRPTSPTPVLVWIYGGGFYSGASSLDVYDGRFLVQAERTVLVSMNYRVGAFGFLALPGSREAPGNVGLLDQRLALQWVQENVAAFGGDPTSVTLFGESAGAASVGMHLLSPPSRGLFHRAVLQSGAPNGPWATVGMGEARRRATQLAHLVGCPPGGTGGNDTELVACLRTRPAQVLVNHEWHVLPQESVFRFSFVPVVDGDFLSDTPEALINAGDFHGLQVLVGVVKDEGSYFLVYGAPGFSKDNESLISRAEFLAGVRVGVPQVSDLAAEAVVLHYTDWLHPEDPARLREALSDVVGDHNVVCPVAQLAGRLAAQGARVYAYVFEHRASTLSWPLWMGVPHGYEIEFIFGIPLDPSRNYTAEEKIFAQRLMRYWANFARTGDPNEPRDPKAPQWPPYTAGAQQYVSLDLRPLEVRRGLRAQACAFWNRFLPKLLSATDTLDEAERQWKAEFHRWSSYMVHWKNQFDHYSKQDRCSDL

Mus musculus [37] = experiment: Antialzheimer activity in scopolamine-induced temporary memory and cognitive impairment ICR mouse model assessed as alternation performance at 10 mg/kg, po administered daily and measured on day 15 by Y-maze test; assay type: functional, organism-based; details: time 15.0 day
[38] = Acute toxicity in male ICR mouse assessed as microscopic spleen damage at 100 to 1000 mg/kg, po administered for 14 days by hematoxylin and eosin staining based assay; assay type: organism-based; details: in vivo, 336 h, dose 100-1000 mg/kg, time 14 day

SMILES: COc1ccc2c3c1O[C@H]1C[C@@H](O)C=C[C@@]31CCN(C)C2 [GALANTAMINE]
- Time (Mus musculus [1]): 60 s
- Activity (Mus musculus [2]): Active
- Activity (Mus musculus [3]): Active
- Activity (PC-12 [4]): Active
- Activity (PC-12 [5]): 70.8%
- Flu intensity [6]: 89205
- Activity (Mus musculus [7]): Active
- Activity (Mus musculus [8]): Active
- Activity (PC-12 [9]): 11.5%
- Activity (Mus musculus [10]): 72.92%
- Activity (PC-12 [11]): 1.89%
- Activity (PC-12 [12]): 17.3%
- Activity (Mus musculus [13]): Active
- Activity (Mus musculus [14]): Active
- Activity (Mus musculus [15]): Active
- Activity (Mus musculus [16]): Active

SMILES: COc1ccc2c3c1O[C@H]1C[C@@H](OCc4ccc(Cc5ccccc5F)cn4)C=C[C@@]31CCN(C)C2
- Time (Mus musculus [1]): 60 s
- Activity (Mus musculus [17]): 76.91%
- Activity [18]: Non-toxic
- Activity (Mus musculus [19]): 72.91%
- Activity (PC-12 [4]): Active
- viability at 4 h, 50 µM [20]: > 90%
- Activity (PC-12 [5]): 86%
- Activity [21]: Non-toxic
- Activity (Mus musculus [22]): Dose-dependent-effect
- Flu intensity [6]: 41314
- Activity (Mus musculus [7]): Active
- Activity (Mus musculus [8]): Active
- Activity [23]: Non-toxic
- Activity [24]: Non-toxic
- Activity (Mus musculus [25]): Dose-dependent-effect
- Activity (PC-12 [9]): 5.42%
- Activity (Mus musculus [26]): Dose-dependent-effect
- Activity (Mus musculus [27]): Active
- Activity (Mus musculus [10]): 73.56%
- Activity (PC-12 [11]): 1.21%
- Activity (Mus musculus [28]): Active
- Activity (PC-12 [12]): 7.35%
- Activity (Mus musculus [13]): Active
- Activity (Mus musculus [29]): Active
- IC50 (Cholinesterase [30]): 358 nM
- Activity [31]: Non-toxic
- inhibition (Cholinesterase [32]): 96.5%
- Activity (Mus musculus [33]): Active
- Activity (Mus musculus [14]): Active
- Activity (PC-12 [34]): Dose-dependent-effect
- Activity (Mus musculus [15]): Active
- Activity [35]: Non-toxic
- Activity [36]: Non-toxic
- Activity (Mus musculus [16]): Active
- IC50 (Acetylcholinesterase): 514 nM
- Activity (Mus musculus [37]): inactive
- Activity [38]: Non-toxic
